Patent US12667584B2, “Adenosine analog and its use in regulating the circadian clock” (NATIONAL INSTITUTE OF BIOLOGICAL SCIENCES, BEIJING, priority 2017, dated 2026)
Read-outs that look alike come from different tables or passages of the source.

System: Per2-Luc reporter U2OS cells (D15)
Assay: Circadian phase shift cell assay in D15 cells, 384 well plate, Tecan, with or without pentostatin
Format: cell-based, human
Details: for minimal effective concentration: read-out: Cell Assay; for With Pentostadin Cell Assay: pentostatin 5 μg/ml
[1] = Homo sapiens, U2OS, without pentostatin, concentration that shifts the circadian phase
[2] = concentration that shifts the circadian phase
[3] = without pentostatin, concentration that shifts the circadian phase
[4] = under the concentration of 100 μM

Row | Compound | minimal effective concentration [1] | With Pentostadin Cell Assay [2] | further results
1 | Nc1ncnc2c1ncn2[C@@H]1O[C@H](COC(=O)CCCC[C@@H]2SC[C@@H]3NC(=O)N[C@@H]32)C(O)C1OC(=O)CCCC[C@@H]1SC[C@@H]2NC(=O)N[C@@H]21 (stereo partly drawn) | > 500 µM | 25 µM | –
2 | Nc1ncnc2c1ccn2[C@@H]1O[C@H](CO)CC1O (stereo partly drawn) | 200 µM | 25 µM | –
3 | Nc1ncnc2c1nc(Br)n2[C@@H]1O[C@H](CO)[C@H](O)[C@H]1O | > 500 µM | 100 µM | –
4 | O=C1N[C@H]2[C@H](CS[C@H]2CCCCC(=O)OC[C@H]2O[C@@H](n3cnc4cc(Cl)c(Cl)cc43)C(O)C2O)N1 (stereo partly drawn) | 40 µM | – | –
5 | Nc1nc(NC2CC2)c2ncn([C@H]3C=C[C@@H](CO)O3)c2n1 | 400 µM | – | –
6 | Nc1ncnc2c1ncn2[C@@H]1O[C@@H]2COC2[C@H]1O (stereo partly drawn) | > 500 µM | 100 µM | –
7 | Nc1ncnc2c1c(Br)cn2[C@H]1O[C@H](CO)[C@H](O)[C@H]1O | > 500 µM | 50 µM | –
8 | Nc1ncnc2c1ncn2[C@@H]1O[C@H](CO)[C@H](O)[C@H]1O [NQZ-007, 9-(β-D-xylofuranosyl)-adenine] | – | – | concentration of eliciting 12 h phase shift (potency) (pentostatin containing medium (5 μg/ml)): 0.2 µM; concentration of eliciting 12 h phase shift (potency) (without pentostatin): 25 µM
9 | Nc1ncnc2c1ncn2[C@@H]1O[C@H](CO)CC1OC(=O)CCCC[C@@H]1SC[C@@H]2NC(=O)N[C@@H]21 (stereo partly drawn) | > 500 µM | 1.5 µM | –
10 | Nc1ncnc2c1nc(Br)n2[C@@H]1O[C@H](CO)C[C@H]1O | > 500 µM | 100 µM | –
11 | C#CC(O)C1O[C@@H](n2cnc3c(N)ncnc32)[C@H](O)[C@H]1O (stereo partly drawn) | > 500 µM | 100 µM | –
12 | CNc1nc2c(=O)[nH]c(N)nc2n1[C@@H]1O[C@H](CO)C(O)C1O (stereo partly drawn) | 100 µM | – | –
13 | Nc1nc(F)nc2c1nc(F)n2[C@@H]1O[C@H](CO)[C@H](O)[C@H]1O | > 500 µM | 200 µM | –
14 | COc1nc(N)c2ncn([C@@H]3O[C@H](CO)C(O)C3O)c2n1 (stereo partly drawn) | > 500 µM | 100 µM | –
15 | OC[C@H]1O[C@@H](n2cnc3cc(Cl)c(Cl)cc32)C(O)C1O (stereo partly drawn) [drawing 284] | – | – | minimal effective concentration [3]: 10 µM
16 | OC[C@H]1O[C@@H](n2c(F)nc3c(F)nc(F)nc32)[C@H](O)[C@H]1O [NQZ-195] | – | – | period effect [4]: elongation period effect
17 | OC[C@H]1O[C@@H](n2cnc3c(Nc4cccc(O)c4)ncnc32)C(O)C1O (stereo partly drawn) | 200 µM | – | –
18 | Nc1nccc2c1ncn2[C@@H]1O[C@H](CO)C(O)C1O (stereo partly drawn) | 50 µM | 50 µM | –
19 | Nc1cc(Cl)nc2c1ncn2[C@@H]1O[C@H](CO)C(O)C1O (stereo partly drawn) | > 500 µM | 100 µM | –
20 | Nc1ncnc2c1c(F)cn2[C@H]1O[C@H](CO)[C@H](O)[C@H]1O | > 500 µM | 100 µM | –
21 | Nc1ncnc2c1cc(Br)n2[C@@H]1O[C@H](CO)C[C@H]1O | > 500 µM | 100 µM | –
22 | C=C[C@@H]1CC(O)[C@H](n2cnc3c(N)ncnc32)O1 (stereo partly drawn) | 200 µM | 25 µM | –
23 | Nc1ncnc2c1ncn2[C@@H]1O[C@H](COP(=O)(O)O)CC1O (stereo partly drawn) | 100 µM | – | –
24 | Nc1ncnc2c1ncn2[C@@H]1O[C@H](COC(=O)CCCC[C@@H]2SC[C@@H]3NC(=O)N[C@@H]32)CC1O (stereo partly drawn) [drawing 316] | – | – | minimal effective concentration [3]: 200 µM

Row | Compound | minimal effective concentration [1] | With Pentostadin Cell Assay [2] | further results
25 | Nc1nccc2c1ncn2[C@@H]1O[C@H](CO)[C@H](O)[C@H]1O | > 500 µM | 100 µM | –
26 | Nc1ncnc2c1ncn2[C@@H]1O[C@H](CO)C(O)C1O (stereo partly drawn) | 12.5 µM | 0.5 µM | –
27 | O=C(CCCC[C@@H]1SC[C@@H]2NC(=O)N[C@@H]21)Nc1ncnc2c1ncn2[C@@H]1O[C@H](CO)CC1O (stereo partly drawn) [drawing 292] | – | 25 µM | minimal effective concentration [3]: >500 µM
28 | Nc1ncnc2c1c(I)cn2[C@@H]1O[C@H](CO)C(O)C1O (stereo partly drawn) | – | – | minimal effective concentration (Homo sapiens, U2OS): 0.3 µM
29 | Nc1ncnc2c1ncn2[C@H]1CC[C@@H](CO)O1 | 200 µM | – | –
30 | CNC(=O)c1cnn(-c2nc(N)c3ncn([C@@H]4O[C@H](CO)C(O)C4O)c3n2)c1 (stereo partly drawn) | 100 µM | – | –
31 | Nc1nc(Br)nc2c1ncn2[C@@H]1O[C@H](CO)C[C@H]1O | > 500 µM | 100 µM | –
32 | CC1(CCC(=O)O[C@@H]2[C@H](O)[C@@H](COC(=O)CCCC(=O)NCCCOCCOCCOCCCNC(=O)CCCC[C@H]3SC[C@H]4NC(=O)N[C@H]43)O[C@H]2n2cnc3c(N)ncnc32)N=N1 | > 500 µM | 100 µM | –
33 | Nc1ncnc2c1c(Br)cn2[C@H]1O[C@H](CO)C[C@H]1O | > 500 µM | 200 µM | –
34 | Nc1nc(F)nc2c1ncn2[C@@H]1O[C@H](CO)C(O)C1O (stereo partly drawn) | 50 µM | – | –
35 | Nc1ncnc2c1ccn2[C@@H]1O[C@H](CO)C(O)C1O (stereo partly drawn) [drawing 303] | 0.3 µM | 0.3 µM | –
36 | Nc1ncnc2c1ncn2[C@@H]1O[C@H](COC(=O)CCCC[C@@H]2SC[C@@H]3NC(=O)N[C@@H]32)CC1OC(=O)CCCC[C@@H]1SC[C@@H]2NC(=O)N[C@@H]21 (stereo partly drawn) | > 500 µM | 12.5 µM | –
37 | Nc1ncnc2c1ncn2[C@@H]1O[C@@H]2COP(=O)(O)OC2C1O (stereo partly drawn) | – | – | minimal effective concentration (Homo sapiens, U2OS): 200 µM
38 | OC[C@@H]1CC(O)[C@H](n2cnc3cc(Cl)c(Cl)cc32)O1 (stereo partly drawn) | 10 µM | – | –
39 | Nc1ncnc2c1ncn2[C@@H]1O[C@H](COC(=O)CCCC[C@@H]2SC[C@@H]3NC(=O)N[C@@H]32)CC1O (stereo partly drawn) [drawing 290] | – | 6 µM | minimal effective concentration [3]: >500 µM
40 | [2H]c1nc(N)c2nc([2H])n([C@@H]3O[C@H](CO)[C@H](O)[C@H]3O)c2n1 [NQZ-198] | – | – | amplitude effect, Per2:luc signal versus control [4]: more than two fold of control
41 | Nc1ncnc2c1c(Br)cn2[C@@H]1O[C@H](CO)[C@H](O)[C@H]1O [drawing 333] | > 500 µM | 100 µM | –
42 | Nc1ncnc2c1ncn2[C@@H]1O[C@H](C2NN2)CC1O (stereo partly drawn) | – | 100 µM | minimal effective concentration (Homo sapiens, U2OS): > 500 µM
43 | [2H]c1nc(N)c2nc([2H])n([C@@H]3O[C@H](CO)[C@H](O)[C@H]3O)c2n1 [drawing 353] | 12.5 µM | 25 µM | –
44 | CCCCCCCC(=O)Nc1ncnc2c1ncn2[C@@H]1O[C@H](CO)[C@H](O)[C@H]1O [NQZ-163] | – | – | amplitude effect, Per2:luc signal versus control [4]: more than two fold of control
45 | Nc1ncnc2c1ncn2[C@@H]1O[C@H](CO)[C@H](OC(=O)CCCC[C@@H]2SC[C@@H]3NC(=O)N[C@@H]32)[C@H]1O | > 500 µM | 25 µM | –
46 | Nc1nc(N)c2ncn([C@@H]3O[C@H](CO)C(O)C3O)c2n1 (stereo partly drawn) | > 500 µM | 100 µM | –
47 | Nc1nc2c([nH]c(=S)n2[C@@H]2O[C@H](CO)C(O)C2O)c(=O)[nH]1 (stereo partly drawn) | 100 µM | – | –
48 | OC[C@H]1O[C@@H](n2cnc3c(NC4CC4)ncnc32)C(O)C1O (stereo partly drawn) | 100 µM | – | –
